Measurements taken from PubChem BioAssay AID184 (DTP/NCI, 2004).
Values joined by “and” are separate entries in the source; they are usually repeats but may differ in a detail not shown here. Equal entries are not always repeated. Inconclusive results and toxic doses are left out. Starred links: 1 amine or outer side, 2 acyl side, 3 side chain; linkers in the order of their positions; H or OH if unused. Positions of bridges follow the written chain, without caps; N, C: chain ends. Non-standard residues stand in square brackets, D forms with d. Residues, ends and D or L forms follow the SMILES beside them. Chains are numbered I, II in the order given. Actinocin(9to1) = Cc1c2oc3c(C)ccc(C(=O)[*:1])c3nc-2c(C(=O)[*:2])c(N)c1=O; aThr = C[C@H](O)[C@H](N)C(=O)O; NMeV = CN[C@H](C(=O)O)C(C)C; Sar = CNCC(=O)O

System: BALB/cJ mice, ADJ-PC-6 ip tumor, median survival T/C
Assay: NCI In Vivo Anticancer Drug Screen. Data for tumor model ADJ-PC-6 (intraperitoneal) in BALB/cJ mice
Conditions: endpoint: median survival time, higher = longer survival
Experimental: The antitumor activity of compounds was measured in mice bearing transplantable tumors. Survival or tumor size were measured and the results are expressed as the measurement made in the treated group (T) divided by the measurement made in the vehicle treated control group (C). The tumor model used in this assay is ADJ-PC-6 (intraperitoneal) in BALB/cJ mice

[1] = dose: 1.5 mg/kg/injection, schedule: Q04DX003 (ip), vehicle: saline
[2] = dose: 3.0 mg/kg/injection, schedule: Q04DX003 (ip), vehicle: saline
[3] = dose: 7.5 mg/kg/injection, schedule: Q04DX003 (ip), vehicle: saline
[4] = dose: 15.0 mg/kg/injection, schedule: Q04DX003 (ip), vehicle: saline
[5] = dose: 30.0 mg/kg/injection, schedule: Q04DX003 (ip), vehicle: saline
[6] = dose: 60.0 mg/kg/injection, schedule: Q04DX003 (ip), vehicle: saline

## O=C1c2c(O)ccc(O)c2C(=O)c2c(NCCNCCO)ccc(NCCNCCO)c21
dose: 0.38 mg/kg/injection, schedule: Q04DX003 (ip), vehicle: saline
  T/C: 155 % of control and 267 % of control
dose: 0.38 mg/kg/injection, schedule: Q04DX003 (iv), vehicle: saline
  T/C: 89 % of control
dose: 0.5 mg/kg/injection, schedule: Q04DX003 (ip), vehicle: saline
  T/C: 188 % of control
dose: 0.5 mg/kg/injection, schedule: Q04DX003 (ip), vehicle: water
  T/C: 186 % of control
dose: 0.75 mg/kg/injection, schedule: Q04DX003 (ip), vehicle: saline
  T/C: 179 % of control and 267 % of control
dose: 1.0 mg/kg/injection, schedule: Q04DX003 (ip), vehicle: saline
  T/C: 207 % of control
dose: 1.0 mg/kg/injection, schedule: Q04DX003 (ip), vehicle: water
  T/C: 195 % of control
[1]
  T/C: 194 % of control and 267 % of control
dose: 1.5 mg/kg/injection, schedule: Q04DX003 (iv), vehicle: saline
  T/C: 153 % of control and 217 % of control
dose: 2.0 mg/kg/injection, schedule: Q04DX003 (ip), vehicle: saline
  T/C: 342 % of control
dose: 2.0 mg/kg/injection, schedule: Q04DX003 (ip), vehicle: water
  T/C: 235 % of control
[2]
  T/C: 194 % of control and 267 % of control
dose: 3.0 mg/kg/injection, schedule: Q04DX003 (iv), vehicle: saline
  T/C: 155 % of control and 232 % of control
dose: 4.0 mg/kg/injection, schedule: Q04DX003 (ip), vehicle: saline
  T/C: 160 % of control
dose: 6.0 mg/kg/injection, schedule: Q04DX003 (iv), vehicle: saline
  T/C: 179 % of control and 267 % of control

## [Cl][Pt+2][Cl].[NH-]C1CCCC1.[NH2-]
dose: 1.04 mg/kg/injection, schedule: Q04DX003 (ip), vehicle: saline
  T/C: 204 % of control
dose: 1.73 mg/kg/injection, schedule: Q04DX003 (ip), vehicle: saline
  T/C: 254 % of control
dose: 2.88 mg/kg/injection, schedule: Q04DX003 (ip), vehicle: saline
  T/C: 385 % of control
dose: 4.8 mg/kg/injection, schedule: Q04DX003 (ip), vehicle: saline
  T/C: 445 % of control
dose: 8.0 mg/kg/injection, schedule: Q04DX003 (ip), vehicle: saline
  T/C: 451 % of control

## CO[C@H](C(=O)[C@@H](O)[C@@H](C)O)[C@@H]1Cc2cc3cc(OC4CC(OC5CC(O)C(O)C(C)O5)C(O)C(C)O4)c(C)c(O)c3c(O)c2C(=O)[C@H]1OC1CC(OC2CC(OC3CC(C)(O)C(O)C(C)O3)C(O)C(C)O2)C(O)C(C)O1 (some centres undefined)
dose: 0.13 mg/kg/injection, schedule: Q04DX003 (ip), vehicle: clinical formulation
  T/C: 104 % of control
dose: 0.25 mg/kg/injection, schedule: Q04DX003 (ip), vehicle: clinical formulation
  T/C: 108 % of control
dose: 125.0 micrograms/kg/injection, schedule: Q04DX003 (ip), vehicle: saline
  T/C: 100 % of control

## CCCCCCCC(=O)N/N=C(\CO)[C@]1(O)Cc2c(O)c3c(c(O)c2[C@@H](OC2CC(N)C(O)C(C)O2)C1)C(=O)c1c(OC)cccc1C3=O (some centres undefined)
dose: 5.0 mg/kg/injection, schedule: Q04DX003 (ip), vehicle: saline
  T/C: 165 % of control
dose: 10.0 mg/kg/injection, schedule: Q04DX003 (ip), vehicle: saline
  T/C: 242 % of control
dose: 20.0 mg/kg/injection, schedule: Q04DX003 (ip), vehicle: saline
  T/C: 180 % of control
dose: 40.0 mg/kg/injection, schedule: Q04DX003 (ip), vehicle: saline
  T/C: 226 % of control
dose: 80.0 mg/kg/injection, schedule: Q04DX003 (ip), vehicle: saline
  T/C: 118 % of control

## CCN(CC)CCNc1ccc(C)c2sc3ccccc3c(=O)c12
dose: 12.5 mg/kg/injection, schedule: Q04DX003 (ip), vehicle: water
  T/C: 103 % of control
dose: 50.0 mg/kg/injection, schedule: Q04DX003 (ip), vehicle: water
  T/C: 113 % of control
dose: 100.0 mg/kg/injection, schedule: Q04DX003 (ip), vehicle: water
  T/C: 91 % of control

## CC1CCC(NC(=O)N(CCCl)N=O)CC1 (centres undefined)
dose: 1.25 mg/kg/injection, schedule: Q04DX003 (ip), vehicle: other
  T/C: 120 % of control
dose: 2.5 mg/kg/injection, schedule: Q04DX003 (ip), vehicle: other
  T/C: 182 % of control and 183 % of control
dose: 5.0 mg/kg/injection, schedule: Q04DX003 (ip), vehicle: other
  T/C: 158 % of control and 355 % of control
dose: 10.0 mg/kg/injection, schedule: Q04DX003 (ip), vehicle: other
  T/C: 337 % of control and 355 % of control
dose: 20.0 mg/kg/injection, schedule: Q04DX003 (ip), vehicle: other
  T/C: 272 % of control and 297 % of control

## Cc1c(N)nc([C@H](CC(N)=O)NC[C@H](N)C(N)=O)nc1C(=O)N[C@H](C(=O)N[C@H](C)[C@@H](O)[C@H](C)C(=O)N[C@H](C(=O)NCCc1nc(-c2nc(C(=O)NCCC[S+](C)C)cs2)cs1)[C@@H](C)O)C(OC1OC(CO)C(O)C(O)C1OC1OC(CO)C(O)C(OC(N)=O)C1O)c1cnc[nH]1 (some centres undefined)
dose: 3.75 mg/kg/injection, schedule: Q04DX003 (ip), vehicle: saline
  T/C: 101 % of control and 108 % of control
[3]
  T/C: 89 % of control and 116 % of control
[4]
  T/C: 102 % of control
[5]
  T/C: 105 % of control and 112 % of control
[6]
  T/C: 106 % of control and 116 % of control

## CN(Cc1cnc2nc(N)nc(N)c2n1)c1ccc(C(=O)N[C@@H](CCC(=O)O)C(=O)O)cc1
dose: 1.25 mg/kg/injection, schedule: Q04DX003 (ip), vehicle: sodium bicarbonate
  T/C: 97 % of control
dose: 2.5 mg/kg/injection, schedule: Q04DX003 (ip), vehicle: sodium bicarbonate
  T/C: 110 % of control
dose: 5.0 mg/kg/injection, schedule: Q04DX003 (ip), vehicle: sodium bicarbonate
  T/C: 104 % of control and 111 % of control
dose: 10.0 mg/kg/injection, schedule: Q04DX003 (ip), vehicle: sodium bicarbonate
  T/C: 124 % of control
dose: 20.0 mg/kg/injection, schedule: Q04DX003 (ip), vehicle: sodium bicarbonate
  T/C: 93 % of control and 124 % of control
dose: 40.0 mg/kg/injection, schedule: Q04DX003 (ip), vehicle: sodium bicarbonate
  T/C: 156 % of control

## Cc1c2oc3c(C)ccc(C(=O)N[C@@H]4C(=O)N[C@H](C(C)C)C(=O)N5CCC[C@H]5C(=O)N(C)CC(=O)N(C)[C@@H](C(C)C)C(=O)O[C@H]4C)c3nc-2c(C(=O)N[C@@H]2C(=O)N[C@H](C(C)C)C(=O)N3CCC[C@H]3C(=O)N(C)CC(=O)N(C)[C@@H](C(C)C)C(=O)O[C@H]2C)c(N)c1=O (I: [aThr][dV]P[Sar][NMeV] / II: [aThr][dV]P[Sar][NMeV]; ester I:1-I:C, II:1-II:C; linker I:N-II:N via Actinocin(9to1))
dose: 0.04 mg/kg/injection, schedule: Q04DX003 (ip), vehicle: saline + alcohol
  T/C: 115 % of control
dose: 0.08 mg/kg/injection, schedule: Q04DX003 (ip), vehicle: saline + alcohol
  T/C: 115 % of control
dose: 0.3 mg/kg/injection, schedule: Q04DX003 (ip), vehicle: saline + alcohol
  T/C: 156 % of control
dose: 0.6 mg/kg/injection, schedule: Q04DX003 (ip), vehicle: saline + alcohol
  T/C: 189 % of control and 197 % of control
dose: 37.5 micrograms/kg/injection, schedule: Q04DX003 (ip), vehicle: saline + alcohol
  T/C: 94 % of control
dose: 75.0 micrograms/kg/injection, schedule: Q04DX003 (ip), vehicle: saline + alcohol
  T/C: 103 % of control
dose: 150.0 micrograms/kg/injection, schedule: Q04DX003 (ip), vehicle: saline + alcohol
  T/C: 97 % of control
dose: 300.0 micrograms/kg/injection, schedule: Q04DX003 (ip), vehicle: saline + alcohol
  T/C: 90 % of control

## CO[C@@]12[C@H](COC(N)=O)C3=C(C(=O)C(C)=C(N)C3=O)N1C[C@@H]1N[C@@H]12
[1]
  T/C: 239 % of control
[2]
  T/C: 335 % of control

## CC(=O)O[C@H]1C(=O)[C@@]2(C)[C@H]([C@H](OC(=O)c3ccccc3)[C@]3(O)C[C@H](OC(=O)[C@H](O)[C@@H](NC(=O)c4ccccc4)c4ccccc4)C(C)=C1C3(C)C)[C@]1(OC(C)=O)CO[C@@H]1C[C@@H]2O
dose: 0.75 mg/kg/injection, schedule: Q01DX009 (ip), vehicle: Klucel (hydroxypropylcellulose) (HPC)
  T/C: 102 % of control
dose: 1.56 mg/kg/injection, schedule: Q01DX009 (ip), vehicle: Klucel (hydroxypropylcellulose) (HPC)
  T/C: 118 % of control
dose: 3.0 mg/kg/injection, schedule: Q01DX009 (ip), vehicle: Klucel (hydroxypropylcellulose) (HPC)
  T/C: 112 % of control
dose: 3.12 mg/kg/injection, schedule: Q01DX009 (ip), vehicle: Klucel (hydroxypropylcellulose) (HPC)
  T/C: 112 % of control
dose: 6.0 mg/kg/injection, schedule: Q01DX009 (ip), vehicle: Klucel (hydroxypropylcellulose) (HPC)
  T/C: 121 % of control
dose: 12.0 mg/kg/injection, schedule: Q01DX009 (ip), vehicle: Klucel (hydroxypropylcellulose) (HPC)
  T/C: 124 % of control

## CO[C@H]1C[C@](C)(O)Cc2cc3c(c(O)c21)C(=O)c1c(O)cc2c(c1C3=O)O[C@@H]1O[C@@]2(C)[C@H](O)[C@@H](N(C)C)[C@@H]1O
[3]
  T/C: 188 % of control
dose: 12.5 mg/kg/injection, schedule: Q04DX003 (ip), vehicle: saline
  T/C: 189 % of control
[4]
  T/C: 319 % of control
dose: 25.0 mg/kg/injection, schedule: Q04DX003 (ip), vehicle: saline
  T/C: 252 % of control
[5]
  T/C: 267 % of control
[6]
  T/C: 471 % of control
